Measurements published in patent US20050136445A1, “Recombinant DNA vector, recombinant bio-luminescent bacterium and method for detecting bio-inhibitory substances using same” (Industrial Technology Research Institute, priority 2003, published 2005).

System: recombinant luminescent bacteria, pLWY-fabG (in Serratia marcescens) and pLWY-sh1A (in Serratia marcescens)
Assay: Luminosity (RLU) of recombinant bio-luminescent bacteria after mixing with test sample
Type: cell-based
Conditions: 200 μl bacterial liquid + 20 μl test sample, react for 15 minutes, luminosity detected for 20 sec; expressed as percentage of purified water control (100%)
Excerpt: The technique developed in this invention that allows speedy detection of bio-inhibitory substances in wastewater is based on the principle that such substance poses a negative effect on the luminescent ability of recombinant luminescent bacteria, pLWY-fabG (in Serratia marcescens) and pLWY-sh1A (in Serratia marcescens) as provided herein. The detailed process for detecting bio-inhibitory substances in wastewater using the foregoing recombinant bio-luminescent bacteria are described below: 1. Culture the constructed foregoing recombinant bio-luminescent bacteria for 18-24 hours (O.D. >2); 2. Dilute the bacterial liquid at 1:100 with fresh LB broth the next day; 3. Shake culture at 225 rpm under 30° C. for one hour; 4. Mix 200 μl of bacterial liquid with 20 μl of test sample; mix well and let them react for 15 minutes; and 5. Use luminometer Berthold Lumat LB9507 to detect luminosity for 20 sec and the results are shown in relative light unit (RLU).
To preclude environmental error, each batch of test samples must include purified water to be treated as a positive control with RLU set as 100% for a standard reference. Given that the RLU of negative control (LB broth) is 0, it was not measured. The test results of samples are expressed as a percentage of the positive control. In this test, the amount of bacterial liquid used was 200 μl and that of test sample was 20 μl. Therefore the concentration of test sample was diluted to 1/11 of the original liquid at the time of testing. The concentrations of samples shown in the table are the detected concentration.

Row | SMILES | luminosity (RLU value) of the recombinant bio-luminescent bacterium versus concentration of the bio-inhibitory substance
1 | Oc1ccccc1 [phenol] | the higher is the phenol concentration, the lower is the RLU value
2 | [Zn+2] [zinc ion] | the higher is the zinc ion concentration, the lower is the RLU value
3 | CC#N [acetonitrile] | the higher is the acetonitrile concentration, the lower is the RLU value
